# Patent US20230303540A1 (Merck Sharp & Dohme LLC, priority 2020, published 2023)
# Target: GST-tagged truncated human mutant G2019S LRRK2 (Homo sapiens, UniProt Q5S007, G2019S)
# Experiment: LRRK2 G2019S Km ATP LanthaScreen assay
# Assay type: biochemical
# Conditions: 134 μM ATP (Km ATP), LRRKtide substrate, mean IC50 values; read-out: LRRK2 pIC50 (converted)
# Summary of the method: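 LanthaScreen TR-FRET read with fluorescein-LRRKtide and 134 μM ATP (Km) in Tris pH 8.5/10 mM MgCl2 buffer. The enzyme was preincubated 15 min with compound at room temperature, and the reaction ran 90 min at ambient temperature. Stopped with EDTA plus Tb anti-phospho-LRRKtide antibody; the 520/495 nm ratio gave a 4-parameter logistic IC50, mean of several runs.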
row,SMILES,IC50
1,"C[C@H]1COC(=O)N1c1ccc2cnc(Nc3cn(C)nc3C(F)F)nc2c1 [Ex-8.12, (4S)-3-(2-{[3-(difluoromethyl)-1-methyl-1H-pyrazol-4-yl]amino}quinazolin-7-yl)-4-methyl-1,3-oxazolidin-2-one]",1.63 nM
2,"CC1CCC12CN(c1cc3nc(Nc4cnn(C5(C)CC5)c4Cl)ncc3cc1Cl)C2 (single isomer, unassigned) [Ex-4.25, (R) or (S) 6-chloro-N-[5-chloro-1-(1-methylcyclopropyl)-1H-pyrazol-4-yl]-7-(5-methyl-2-azaspiro[3.3]heptan-2-yl)quinazolin-2-amine]",570 nM
3,"Cc1cc2cnc(Nc3cnn(C4CC4(F)F)c3Cl)nc2cc1N1CCN([C@H]2COC[C@H]2O)CC1 (single isomer, unassigned) [Ex-5.1, (3S, 4S) or (3R, 4R) 4-(4-(2-((5-Chloro-1-(2,2-(R) or (S)difluorocyclopropyl)-1H-pyrazol-4-yl)amino)-6-methylquinazolin-7-yl)piperazin-1-yl)tetrahydrofuran-3-ol]",0.105 nM
4,"Cc1c(Nc2ncc3ccc(N4C(=O)OC[C@H]4C)cc3n2)cnn1C1CCOCC1 [Ex-7.11, (4R)-4-methyl-3-(2-{[5-methyl-1-(oxan-4-yl)-1H-pyrazol-4-yl]amino}quinazolin-7-yl)-1,3-oxazolidin-2-one]",9.35 nM
5,"Cc1cc2cnc(Nc3cnn(C4CC4(F)F)c3C)nc2cc1N1CCN(C2(C)COCC2O)CC1 (single isomer, unassigned) [Ex-5.3, (3S,4S) or (3R,4R) 4-(4-(2-((1-(2,2-(R) or (S)difluorocyclopropyl)-5-methyl-1H-pyrazol-4-yl)amino)-6-methylquinazolin-7-yl)piperazin-1-yl)-4-methyltetrahydrofuran-3-ol]",0.31 nM
6,"CC1(O)CCN(c2cc3nc(Nc4cnn(C5CC5)c4Cl)ncc3cc2Cl)CC1 [Ex-1.34, 1-{6-chloro-2-[(5-chloro-1-cyclopropyl-1H-pyrazol-4-yl)amino]quinazolin-7-yl}-4-methylpiperidin-4-ol]",1.39 nM
7,"CC1(N2CCN(c3cc4nc(Nc5cnn(C6CC6)c5Cl)ncc4cc3Cl)CC2)COCC1O (single isomer, unassigned) [Ex-1.46, (3S,4S or 3R,4R)-4-(4-{6-chloro-2-[5-chloro-1-cyclopropyl-1H-pyrazol-4-yl)amino]quinazolin-7-yl}piperazin-1-yl)-4-methyloxolane-3-ol]",0.625 nM
8,"CC1(N2CCN(c3cc4nc(Nc5ccnn5C(C)(C)C)ncc4cc3Cl)CC2)COCC1O (single isomer, unassigned) [Ex-6.48, (3S,4S) or (3R,4R) 4-(4-(2-((1-(tert-butyl)-1H-pyrazol-5-yl)amino)-6-chloroquinazolin-7-yl)piperazin-1-yl)-4-methyltetrahydrofuran-3-ol]",11.4 nM
9,"Clc1cc2cnc(Nc3cnn(C4CC4)c3Cl)nc2cc1N1CCn2cnnc2C1 [Ex-1.26, 6-chloro-N-(5-chloro-1-cyclopropyl-1H-pyrazol-4-yl)-7-(5,6-dihydro[1,2,4]triazolo[4,3-a]pyrazin-7(8H)-yl)quinazolin-2-amine]",1.49 nM
10,"CC1(N2CCN(c3cc4nc(Nc5cnn(C(F)F)c5Cl)ncc4cc3Cl)CC2)COCC1O (single isomer, unassigned) [Ex-3.59, (3R,4R) or (3S,4S) 4-(4-(6-chloro-2-((5-chloro-1-(difluoromethyl)-1H-pyrazol-4-yl)amino)quinazolin-7-yl)piperazin-1-yl)-4-methyltetrahydrofuran-3-ol]",0.178 nM
11,"CC(C)(O)Cn1ncc(Nc2ncc3cc(Cl)c(N4CCC(O)CC4)cc3n2)c1Cl [Ex-3.11, 1-(6-chloro-2-{[5-chloro-1-(2-hydroxy-2-methylpropyl)-1H-pyrazol-4-yl]amino}quinazolin-7-yl)piperidin-4-ol]",0.488 nM
12,"CC1(n2ncc(Nc3ncc4cc(Cl)c(N5CCN(CCC#N)CC5)cc4n3)c2Cl)CC1 [Ex-3.20, 3-[4-(6-chloro-2-{[5-chloro-1-(1-methylcyclopropyl)-1H-pyrazol-4-yl]amino}quinazolin-7-yl)piperazin-1-yl]propanenitrile]",1.07 nM
13,"Cc1c(Nc2ncc3cc(Cl)c(N4CCN(C5COC(C)(C)C5)CC4)cc3n2)cnn1C1CC1 (single isomer, unassigned) [Ex-12.5, 6-chloro-N-(1-cyclopropyl-5-methyl-1H-pyrazol-4-yl)-7-(4-(5,5-dimethyltetrahydrofuran-3-yl)piperazin-1-yl)quinazolin-2-amine]",0.56 nM
14,"Cc1c(Nc2ncc3cc(Cl)c(N4CCC(C)(O)CC4C)cc3n2)cnn1C1CC1 (single isomer, unassigned) [Ex-9.2, (2R,4S or 2S,4R, or 2S,4S, or 2R,4R)-1-(6-Chloro-2-((1-cyclopropyl-5-methyl-1H-pyrazol-4-yl)amino)quinazolin-7-yl)-2,4-dimethylpiperidin-4-ol]",1.06 nM
15,"OC1C2CC1CN(c1cc3nc(Nc4cnn(C5CC5)c4)ncc3cc1Cl)C2 (centres unmarked) [Ex-3.28, 3-{6-chloro-2-[(1-cyclopropyl-1H-pyrazol-4-yl)amino]quinazolin-7-yl}-3-azabicyclo [3.1.1]heptan-6-ol]",4.52 nM
16,"Cc1c(Nc2ncc3cc(Cl)c(N4CCN(C5(C)COCC5O)CC4)cc3n2)cnn1C (single isomer, unassigned) [Ex-3.37, (3R,4R) or (3S,4S) 4-(4-{6-chloro-2-[(1,5-dimethyl-1H-pyrazol-4-yl)amino]quinazolin-7-yl}piperazin-1-yl)-4-methyloxolan-3-ol]",29.9 nM
17,"Cc1c(Nc2ncc3cc(Cl)c(N4CCN(C5COCC5O)CC4)cc3n2)cnn1C(C)(C)C#N (single isomer, unassigned) [Ex-6.21, (3S,4S) or (3R,4R) 2-[4-({6-chloro-7-[4-(4-hydroxyoxolan-3-yl)piperazin-1-yl]quinazolin-2-yl}amino)-5-methyl-1H-pyrazol-1-yl]-2-methylpropanenitrile]",0.323 nM
18,"CC1(N2CCN(c3cc4nc(Nc5cnn(C6CC6)c5Cl)ncc4cc3Cl)CC2)COC1 [Ex-4.17, 6-chloro-N-(5-chloro-1-cyclopropyl-1H-pyrazol-4-yl)-7-[4-(3-methyloxetan-3-yl)piperazin-1-yl]quinazolin-2-amine]",2.32 nM
19,"Cc1nn(C2CC3(C2)CN(C2COC2)C3)cc1Nc1ncc2ccc(N3C(=O)C4CCC3C4)cc2n1 (single isomer, unassigned) [Ex-8.6, (1R,4S) or (1S,4R)-2-[2-({3-methyl-1-[2-(oxetan-3-yl)-2-azaspiro[3.3]heptan-6-yl]-1H-pyrazol-4-yl}amino)quinazolin-7-yl]-2-azabicyclo[2.2.1]heptan-3-one]",4.86 nM
20,"Cn1ncc(Nc2ncc3ccc(N4C(=O)C5CCC4C5)cc3n2)c1C(F)F (single isomer, unassigned) [Ex-4.7, 2-(2-{[5-(difluoromethyl)-1-methyl-1H-pyrazol-4-yl]amino}quinazolin-7-yl)-2-azabicyclo[2.2.1]heptan-3-one]",3.19 nM
21,"C[C@]1(O)[C@@H]2CC[C@H]1CN(c1cc3nc(Nc4cnn(C5CC5)c4Cl)ncc3cc1Cl)C2 [Ex-1.40, (8-syn)-3-{6-chloro-2-[(5-chloro-1-cyclopropyl-1H-pyrazol-4-yl)amino]quinazolin-7-yl}-8-methyl-3-azabicyclo[3.2.1]octan-8-ol]",11.2 nM
22,"CC1(N2CCN(c3cc4nc(Nc5cnn(CC6CCC6)c5Cl)ncc4cc3Cl)CC2)COC1 [Ex-4.54, 6-chloro-N-[5-chloro-1-(cyclobutylmethyl)-1H-pyrazol-4-yl]-7-[4-(3-methyloxetan-3-yl)piperazin-1-yl]quinazolin-2-amine]",2.87 nM
23,"CCn1ncc(Nc2ncc3ccc(N4C(=O)C5CCC4C5)cc3n2)c1C (centres unmarked) [Ex-7.20, 2-{2-[(1-ethyl-5-methyl-1H-pyrazol-4-yl)amino]quinazolin-7-yl}-2-azabicyclo[2.2.1]heptan-3-one]",11.3 nM
24,"Cc1c(Nc2ncc3cc(Cl)c(N4CCN(C5(C)COC5)CC4)cc3n2)cnn1CCF [Ex-4.12, 6-chloro-N-[1-(2-fluoroethyl)-5-methyl-1H-pyrazol-4-yl]-7-[4-(3-methyloxetan-3-yl)piperazin-1-yl]quinazolin-2-amine]",0.625 nM
25,"COCC12CC(n3cc(Nc4ncc5cc(Cl)c(N6C[C@H]7CC[C@@H](C6)[C@@]7(C)O)cc5n4)cn3)(C1)C2 [Ex-3.31, (8-syn)-3-[6-chloro-2-({1-[3-(methoxymethyl)bicyclo[1.1.1]pentan-1-yl]-1H-pyrazol-4-yl}amino)quinazolin-7-yl]-8-methyl-3-azabicyclo[3.2.1]octan-8-ol]",2.08 nM
26,"OC1COCC1N1CCN(c2cc3nc(Nc4cnn(C5CC5(F)F)c4Cl)ncc3cc2Cl)CC1 (single isomer, unassigned) [Ex-6.29, (3S,4S) or (3R,4R) 4-[4-(6-chloro-2-{[5-chloro-1-(2,2-(R) or (S)difluorocyclopropyl)-1H-pyrazol-4-yl]amino}quinazolin-7-yl)piperazin-1-yl)oxolan-3-ol]",15.2 nM
27,"COC1CC(Cn2ncc(Nc3ncc4cc(Cl)c(N5CCN(C6(C)COC6)CC5)cc4n3)c2Cl)C1 (centres unmarked) [Ex-4.69, 6-chloro-N-{5-chloro-1-[(3-methoxycyclobutyl)methyl]-1H-pyrazol-4-yl}-7-[4-(3-methyloxetan-3-yl)piperazin-1-yl]quinazolin-2-amine]",3.23 nM
28,"FC1(F)CC(N2CCN(c3cc4nc(Nc5cnn(C6CC6)c5Cl)ncc4cc3Cl)CC2)C1 [Ex-4.71, 6-chloro-N-(5-chloro-1-cyclopropyl-1H-pyrazol-4-yl)-7-(4-(3,3-difluorocyclobutyl)piperazin-1-yl)quinazolin-2-amine]",11.1 nM
29,"COCC12CC(n3ncc(Nc4ncc5cc(Cl)c(N6C[C@H]7CC[C@@H](C6)[C@@]7(C)O)cc5n4)c3Cl)(C1)C2 [Ex-3.1, (Endo)-3-(6-chloro-2-((5-chloro-1-(3-(methoxymethyl)bicyclo[1.1.1]pentan-1-yl)-1H-pyrazol-4-yl)amino)quinazolin-7-yl)-8-methyl-3-azabicyclo[3.2.1]octan-8-ol]",0.093 nM
